# *1 amine or outer side, *2 acyl side, *3 side chain or, on linkers, in order; H or OH if unused. Where a SMILES comes first, the peptide text is derived from it. Side-chain parts run from the residue outwards. [ ]: non-standard residue; d: D form. The star is where a group is joined. C20 diacid = O=C(O)CCCCCCCCCCCCCCCCCCC(=O)*; γGlu = O=C(O)[C@H](CCC(=O)[*:2])N[*:1]; C14 diacid = O=C(O)CCCCCCCCCCCCC(=O)*; Thp = NC1(C(=O)O)CCOCC1; AEEA = NCCOCCOCC(=O)O; Aib = CC(C)(N)C(=O)O
# How the values were obtained:
# [1] = Chemical stability in buffer (pH 7.4 / pH 4.5), % purity loss; format: physicochemical; details: 40° C. vs 5° C., 14 or 28 days; for Buffer stability pH 7.4 % purity loss: 100 mM phosphate buffer pH 7.4
# In short: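 LC-UV gave % loss after 14 or 28 days of storage at 5 °C or 40 °C. Samples were diluted supernatants from compound incubated 1 h at room temperature at 10 mg/mL target, in 100 mM acetate pH 4.5 or 100 mM phosphate pH 7.4.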
# [2] = Pharmacokinetics in male Sprague Dawley rats after subcutaneous administration; format: in vivo; details: plasma, rat, SC, 0.05 mg/kg
# [3] = tested on: Sprague Dawley rats; assay: Effect on systolic blood pressure, telemetry in Sprague Dawley rats; format: in vivo, rat; details: 0.1 mg/kg SC; for Systolic blood pressure (Mean) % change from baseline, 8 h / Systolic blood pressure (Mean) % change from baseline, 12 h / Systolic blood pressure (Mean) % change from baseline, 24 h: n=2; for Duration of action: last time point with an effect on BP still observed
# In short: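 Values are % change from a 1 h pre-dose baseline in systolic pressure, tracked by telemetry for up to 48 hours after a single 0.1 mg/kg subcutaneous dose. Rats (Sprague Dawley, n=2 per peptide) carried aortic catheters and recovered at least 10 days post-surgery; duration of action marks the last time point still showing an effect.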
# [4] = In vitro subcutaneous tissue supernatant (SCts) stability and metabolite identification, rat; format: in vitro ADME; set-up: remaining at 2 h: dose or concentration left out as unconfirmed; details: male, Sprague Dawley; rat subcutaneous tissue supernatant (SCts), 37° C, 2 h
# [5] = Pharmacokinetics in male Sprague Dawley rats after subcutaneous administration; format: in vivo; details: plasma, rat, IV, 0.05 mg/kg
# [6] = molecular target: T1, CFR1R receptor (Homo sapiens, UniProt P34998); assay: Activity at anti-target CFR1R receptor, cAMP assay in CRF1R-overexpression CHO-K1 cells; format: cell-based; details: 100% = Sauvagine at 100 nM; for EC50: cAMP
# T1 construct: host or cells: CHO-K1 (clone 2)
# T1 sequence (P34998 24-415): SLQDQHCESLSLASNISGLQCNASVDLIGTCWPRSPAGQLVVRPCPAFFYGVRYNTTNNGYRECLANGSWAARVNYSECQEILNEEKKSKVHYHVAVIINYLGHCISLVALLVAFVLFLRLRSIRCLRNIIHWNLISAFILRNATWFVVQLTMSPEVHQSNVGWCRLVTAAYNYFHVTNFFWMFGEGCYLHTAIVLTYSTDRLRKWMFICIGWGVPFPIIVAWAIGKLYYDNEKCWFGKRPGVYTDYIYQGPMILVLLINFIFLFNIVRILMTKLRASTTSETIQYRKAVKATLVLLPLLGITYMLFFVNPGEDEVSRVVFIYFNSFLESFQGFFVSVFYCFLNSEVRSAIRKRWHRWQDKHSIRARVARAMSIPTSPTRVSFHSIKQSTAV
# In short: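 Uses frozen stocks of CHO-K1 clone 2 cells overexpressing human CRF1R, plated at 4000 cells/well final, with cAMP measured by the same protocol as the TeloHAEC line. Full-activation control: 100 nM Sauvagine.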
# [7] = molecular target: T2, human CRF2a receptor (Homo sapiens, UniProt Q13324); assay: Activity at human CRF2a receptor, cAMP functional assay in TeloHEAC cells; format: cell-based; details: TeloHEAC cells stably expressing human CRF2a receptor, relative to urocortin 2 (100 nM = 100%)
# T2 construct: expressed in transfected cells; host or cells: TeloHEAC cells
# T2 sequence (Q13324 1-411): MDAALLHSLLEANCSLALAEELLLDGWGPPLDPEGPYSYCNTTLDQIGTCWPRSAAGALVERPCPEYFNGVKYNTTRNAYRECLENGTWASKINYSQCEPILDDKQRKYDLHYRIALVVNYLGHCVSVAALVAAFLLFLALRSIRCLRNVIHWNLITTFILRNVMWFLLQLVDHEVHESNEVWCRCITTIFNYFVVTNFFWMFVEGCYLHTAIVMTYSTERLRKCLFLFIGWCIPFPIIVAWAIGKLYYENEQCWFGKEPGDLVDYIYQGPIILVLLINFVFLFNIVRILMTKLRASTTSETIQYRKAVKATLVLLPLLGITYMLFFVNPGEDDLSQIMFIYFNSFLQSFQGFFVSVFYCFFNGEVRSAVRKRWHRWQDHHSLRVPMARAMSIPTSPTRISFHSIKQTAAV
# In short: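 cAMP accumulation was measured by HTRF 665/620 nm ratio after 30 min at 37° C compound exposure (16 twofold dilutions) of CRF2a-expressing TeloHEAC cells, 10000/well, in HEPES-buffered HBSS plus IBMX. Activity was normalised to urocortin 2 at 100 nM (100%), and EC50 was the concentration giving half-maximal activation.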
smiles,measurement,setting,value
CC[C@H](C)[C@H](NC(C)=O)C(=O)N[C@H](C(=O)N[C@@H](CC(C)C)C(=O)N[C@@H](CO)C(=O)N[C@@H](CC(C)C)C(=O)N[C@@H](CC(=O)O)C(=O)N[C@@H](C(=O)N1CCC[C@H]1C(=O)N[C@H](C(=O)N[C@@H](CCCCN)C(=O)N[C@@H](CC(C)C)C(=O)N[C@@H](CCCCNC(=O)CC[C@H](NC(=O)CCCCCCCCCCCCC(=O)O)C(=O)O)C(=O)N[C@@H](CCCCN)C(=O)N[C@H](C(=O)N[C@@H](CC(C)C)C(=O)N[C@@H](CC(C)C)C(=O)N[C@@H](CCC(=O)O)C(=O)N[C@@H](CCC(N)=O)C(=O)N[C@@H](CCC(=O)O)C(=O)N[C@@H](CCCCN)C(=O)N[C@@H](CCC(N)=O)C(=O)N[C@@H](CCCCN)C(=O)N[C@@H](CCCCN)C(=O)N[C@@H](CCC(N)=O)C(=O)N[C@@H](CCCNC(=N)N)C(=O)N[C@@H](CCC(=O)O)C(=O)N[C@@H](CCC(N)=O)C(=O)N[C@@H](C)C(=O)N[C@@H](CCC(=O)O)C(=O)N[C@H](C(=O)N[C@@H](CC(N)=O)C(=O)NC(C)(C)C(=O)N[C@@H](CCC(N)=O)C(=O)N[C@H](C(=O)N[C@@H](CC(C)C)C(=O)N[C@@H](C)C(=O)N[C@@H](CCC(N)=O)C(=O)N[C@H](C(N)=O)C(C)C)[C@@H](C)CC)[C@@H](C)O)[C@@H](C)CC)[C@@H](C)CC)C(C)C)C(C)C [compound 82] (Ac-IVLSLD[dV]PIKLK([γGlu-C14 diacid])KILLEQEKQKKQREQAETN[Aib]QILAQV-NH2),Buffer stability pH 7.4 % purity loss,[1],0.0/Not Tested %
same,AUC(0-t),[2],221 ng·h/mL
same,Cmax,[2],64 ng/mL
same,Tmax,[2],0.75 h
same,half-life,[2],1.4 h
same,"Systolic blood pressure (Mean) % change from baseline, 8 h",[3],−33%
same,"Systolic blood pressure (Mean) % change from baseline, 12 h",[3],−4%
same,"Systolic blood pressure (Mean) % change from baseline, 24 h",[3],11%
same,Duration of action,[3],14 h
same,remaining at 2 h,[4],82%
CC[C@H](C)[C@H](NC(C)=O)C(=O)N[C@H](C(=O)N[C@@H](CC(C)C)C(=O)N[C@@H](CO)C(=O)N[C@@H](CC(C)C)C(=O)N[C@@H](CC(=O)O)C(=O)N[C@@H](C(=O)N1CCC[C@H]1C(=O)N[C@H](C(=O)N[C@@H](CCCCN)C(=O)N[C@@H](CC(C)C)C(=O)N[C@@H](CCCCNC(=O)CC[C@H](NC(=O)CCCCCCCCCCCCCCCCCCC(=O)O)C(=O)O)C(=O)N[C@@H](CCCCN)C(=O)N[C@H](C(=O)N[C@@H](CC(C)C)C(=O)N[C@@H](CC(C)C)C(=O)N[C@@H](CCC(=O)O)C(=O)N[C@@H](CCC(N)=O)C(=O)N[C@@H](CCC(=O)O)C(=O)N[C@@H](CCCCN)C(=O)N[C@@H](CCC(N)=O)C(=O)N[C@@H](CCCCN)C(=O)N[C@@H](CCCCN)C(=O)N[C@@H](CCC(N)=O)C(=O)N[C@@H](CCCNC(=N)N)C(=O)N[C@@H](CCC(=O)O)C(=O)N[C@@H](CCC(N)=O)C(=O)N[C@@H](C)C(=O)N[C@@H](CCC(=O)O)C(=O)N[C@H](C(=O)N[C@@H](CC(N)=O)C(=O)NC1(C(=O)N[C@@H](CCC(N)=O)C(=O)N[C@H](C(=O)N[C@@H](CC(C)C)C(=O)N[C@@H](C)C(=O)N[C@@H](CCC(N)=O)C(=O)N[C@H](C(N)=O)C(C)C)[C@@H](C)CC)CCOCC1)[C@@H](C)O)[C@@H](C)CC)[C@@H](C)CC)C(C)C)C(C)C [compound 210] (Ac-IVLSLD[dV]PIKLK([γGlu-C20 diacid])KILLEQEKQKKQREQAETN[Thp]QILAQV-NH2),Buffer stability pH 4.5 % purity loss,[1]; 100 mM acetate buffer pH 4.5,0.0/0.0 ^ %
same,Buffer stability pH 7.4 % purity loss,[1],0.0/0.0 ^ %
same,AUC(0-t),[5],7780 ng·h/mL
same,half-life,[5],8.4 h
same,"Systolic blood pressure (Mean) % change from baseline, 8 h",[3],−13%
same,"Systolic blood pressure (Mean) % change from baseline, 12 h",[3],−13%
same,"Systolic blood pressure (Mean) % change from baseline, 24 h",[3],−6%
same,Duration of action,[3],>24 h
same,remaining at 2 h,[4],72%
CC[C@H](C)[C@H](NC(C)=O)C(=O)N[C@H](C(=O)N[C@@H](CC(C)C)C(=O)N[C@@H](CO)C(=O)N[C@@H](CC(C)C)C(=O)N[C@@H](CC(=O)O)C(=O)N[C@@H](C(=O)N1CCC[C@H]1C(=O)N[C@H](C(=O)N[C@@H](CCCCN)C(=O)N[C@@H](CC(C)C)C(=O)N[C@@H](CCCCNC(=O)COCCOCCNC(=O)COCCOCCNC(=O)CC[C@H](NC(=O)CCCCCCCCCCCCCCCCCCC(=O)O)C(=O)O)C(=O)N[C@@H](CCCCN)C(=O)N[C@H](C(=O)N[C@@H](CC(C)C)C(=O)N[C@@H](CC(C)C)C(=O)N[C@@H](CCC(=O)O)C(=O)N[C@@H](CCC(N)=O)C(=O)N[C@@H](CCC(=O)O)C(=O)N[C@@H](CCCCN)C(=O)N[C@@H](CCC(N)=O)C(=O)N[C@@H](CCCCN)C(=O)N[C@@H](CCC(=O)O)C(=O)N[C@@H](CCC(N)=O)C(=O)N[C@@H](CCCNC(=N)N)C(=O)N[C@@H](CCC(=O)O)C(=O)N[C@@H](CCC(N)=O)C(=O)N[C@@H](C)C(=O)N[C@@H](CCC(=O)O)C(=O)N[C@H](C(=O)N[C@@H](CC(N)=O)C(=O)NC(C)(C)C(=O)N[C@@H](CCC(N)=O)C(=O)N[C@H](C(=O)N[C@@H](CC(C)C)C(=O)N[C@@H](C)C(=O)N[C@@H](CCC(N)=O)C(=O)N[C@H](C(N)=O)C(C)C)[C@@H](C)CC)[C@@H](C)O)[C@@H](C)CC)[C@@H](C)CC)C(C)C)C(C)C [compound 236] (Ac-IVLSLD[dV]PIKLK([AEEA-AEEA-γGlu-C20 diacid])KILLEQEKQKEQREQAETN[Aib]QILAQV-NH2),Buffer stability pH 7.4 % purity loss,[1],3.8/Not Tested %
same,AUC(0-t),[5],8250 ng·h/mL
same,half-life,[5],15 h
same,Emax (% I),[6],7 % I
same,EC50,[6],> 250000 pM
same,EC50,[7],540 pM
same,remaining at 2 h,[4],75%
CC[C@H](C)[C@H](NC(C)=O)C(=O)N[C@H](C(=O)N[C@@H](CC(C)C)C(=O)N[C@@H](CO)C(=O)N[C@@H](CC(C)C)C(=O)N[C@@H](CC(=O)O)C(=O)N[C@@H](C(=O)N1CCC[C@H]1C(=O)N[C@H](C(=O)N[C@@H](CCCCN)C(=O)N[C@@H](CC(C)C)C(=O)N[C@@H](CCCCNC(=O)CC[C@H](NC(=O)CC[C@H](NC(=O)CCCCCCCCCCCCCCCCCCC(=O)O)C(=O)O)C(=O)O)C(=O)N[C@@H](CCCCN)C(=O)N[C@H](C(=O)N[C@@H](CC(C)C)C(=O)N[C@@H](CC(C)C)C(=O)N[C@@H](CCC(=O)O)C(=O)N[C@@H](CCC(N)=O)C(=O)N[C@@H](CCC(=O)O)C(=O)N[C@@H](CCCCN)C(=O)N[C@@H](CCC(N)=O)C(=O)N[C@@H](CCCCN)C(=O)N[C@@H](CCC(=O)O)C(=O)N[C@@H](CCC(N)=O)C(=O)N[C@@H](CCCNC(=N)N)C(=O)N[C@@H](CCC(=O)O)C(=O)N[C@@H](CCC(N)=O)C(=O)N[C@@H](C)C(=O)N[C@@H](CCC(=O)O)C(=O)N[C@H](C(=O)N[C@@H](CC(N)=O)C(=O)NC(C)(C)C(=O)N[C@@H](CCC(N)=O)C(=O)N[C@H](C(=O)N[C@@H](CC(C)C)C(=O)N[C@@H](C)C(=O)N[C@@H](CCC(N)=O)C(=O)N[C@H](C(N)=O)C(C)C)[C@@H](C)CC)[C@@H](C)O)[C@@H](C)CC)[C@@H](C)CC)C(C)C)C(C)C [compound 241] (Ac-IVLSLD[dV]PIKLK([γGlu-γGlu-C20 diacid])KILLEQEKQKEQREQAETN[Aib]QILAQV-NH2),Buffer stability pH 7.4 % purity loss,[1],2.0/Not Tested %
same,AUC(0-t),[5],6210 ng·h/mL
same,half-life,[5],15 h
same,Emax (% I),[6],7 % I
same,EC50,[6],> 250000 pM
same,EC50,[7],560 pM
same,remaining at 2 h,[4],68%
